Test results taken from US20240174723A1, “STAPLED ANTIMICROBIAL PEPTIDES (STAMPS) AND USES THEREOF” (Lytica Therapeutics, Inc., priority 2021, published 2024).
In brackets after ≈: the same amount, converted by molar mass. Positions of bridges follow the written chain, without caps; N, C: chain ends. Non-standard residues stand in square brackets, D forms with d. Residues, ends and D or L forms follow the SMILES beside them. PEG5 = NCCOCCOCCOCCOCCOCCC(=O)O; S5 = C=CCCC[C@](C)(N)C(=O)O; Dab = NCC[C@H](N)C(=O)O

Tests used:
[1] = system: K. pneumoniae; type: cell-based, Klebsiella pneumoniae
Method in brief: (§1)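 Minimum inhibitory concentrations of stapled peptides were determined by a microbroth dilution method derived from CLSI, using a final inoculum of 5×10^5 CFU/ml and 20-24 h incubation at 37 °C.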

[2] = in vitro; type: cell-based; conditions: human, Inhibitory Concentration at 50% Cytotoxicity (IC50) Human Liver Cells (HepG2)
Method in brief: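 HepG2 cells in EMEM with 10% FBS, allowed 4 h to attach, then exposed to serial dilutions of StAMPs (from a 5 mg/mL water stock) or vehicle. After 48 h at 37 °C, viability read by CellTiter-Glo luminescence.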

[3] = system: E. coli; type: cell-based, Escherichia coli
Method in brief: as §1

[4] = system: P. aeruginosa; type: cell-based, Pseudomonas aeruginosa
Method in brief: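 Broth microdilution adapted from CLSI in MHB or cation-adjusted MHB; log-phase P. aeruginosa at 5×10^5 CFU/ml final with serially diluted stapled peptides. Incubated 20-24 h at 37 °C; MIC is the lowest concentration without visible growth.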

[5] = system: S. aureus; type: cell-based, Staphylococcus aureus
Method in brief: as §1

[6] = system: A. baumannii; type: cell-based, Acinetobacter baumannii
Method in brief: as §1

[7] = in vitro; type: cell-based; conditions: human
Method in brief: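 RPTEC or HepG2 cells plated overnight, given fresh media, then serial StAMP dilutions (from 5 mg/mL water stock) or vehicle at 37 °C. Cytotoxicity read as LDH release into media, absorbance 490 nm; renal toxicity after 90 min, liver toxicity after 48 h incubation.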

SMILES	Minimum Inhibitory Concentration (MIC) K. pneumoniae [1] [µg/mL]	IC50 at 48 hours [2] [µg/mL]	Minimum Inhibitory Concentration (MIC) E. coli [3] [µg/mL]	Minimum Inhibitory Concentration (MIC) P. aeruginosa [4] [µg/mL]	Minimum Inhibitory Concentration (MIC) S. aureus [5] [µg/mL]	Minimum Inhibitory Concentration (MIC) A. baumannii [6] [µg/mL]	IC50 at 90 min [7] [µg/mL]
CC(C)[C@@H]1NC(=O)[C@@](C)(NC(=O)[C@H](C)NC(=O)[C@H](CCCCN)NC(=O)CNC(=O)[C@H](Cc2ccccc2)NC(=O)[C@H](CCCCN)NC(=O)[C@H](CCCCN)NC(=O)[C@H](CCCCN)NC(=O)[C@H](CCCCN)NC(=O)[C@H](CCCCN)NC(=O)[C@]2(C)CCCC=CCCC[C@](C)(NC(=O)CN)C(=O)NCC(=O)N[C@@H](CCCCN)C(=O)N[C@@H](Cc3ccccc3)C(=O)N2)CCCC=CCCC[C@@](C)(C(=O)N[C@@H](C)C(=O)N[C@@H](CCCCN)C(=O)N[C@@H](CCCCN)C(N)=O)NC(=O)[C@H](CCC(=O)O)NC(=O)CNC1=O [compound 4] (H-G[S5]GKF[S5]KKKKKFGKA[S5]VGE[S5]AKK-NH2; staple 2-6, 16-20)	6	127 (≈ 49.5 µM)	2	3	>64	3	105 (≈ 40.9 µM)
CC(C)[C@@H]1NC(=O)[C@@](C)(NC(=O)[C@H](C)NC(=O)[C@H](CCN)NC(=O)CNC(=O)[C@H](Cc2ccccc2)NC(=O)[C@H](CCCCN)NC(=O)[C@H](CCCCN)NC(=O)[C@H](CCCCN)NC(=O)[C@H](CCCCN)NC(=O)[C@H](CCCCN)NC(=O)[C@]2(C)CCCC=CCCC[C@](C)(NC(=O)CN)C(=O)NCC(=O)N[C@@H](CCCCN)C(=O)N[C@@H](Cc3ccccc3)C(=O)N2)CCCC=CCCC[C@@](C)(C(=O)N[C@@H](C)C(=O)N[C@@H](CCCCN)C(=O)N[C@@H](CCCCN)C(N)=O)NC(=O)[C@H](CCC(=O)O)NC(=O)CNC1=O [compound 39] (H-G[S5]GKF[S5]KKKKKFG[Dab]A[S5]VGE[S5]AKK-NH2; staple 2-6, 16-20)	8	140 (≈ 55.2 µM)	2	4	>64	2	115 (≈ 45.3 µM)
CC(C)[C@@H]1NC(=O)[C@@](C)(NC(=O)[C@H](C)NC(=O)[C@H](CCCCN)NC(=O)CNC(=O)[C@H](Cc2ccccc2)NC(=O)[C@H](CCCCN)NC(=O)[C@H](CCCCN)NC(=O)[C@H](CCCCN)NC(=O)[C@H](Cc2ccc(O)cc2)NC(=O)[C@H](Cc2c[nH]cn2)NC(=O)[C@]2(C)CCCC=CCCC[C@](C)(NC(=O)CN)C(=O)NCC(=O)N[C@@H](CCCCN)C(=O)N[C@@H](Cc3ccccc3)C(=O)N2)CCCC=CCCC[C@@](C)(C(=O)N[C@@H](C)C(=O)N[C@@H](CCCCN)C(=O)N[C@@H](CCCCN)C(N)=O)NC(=O)[C@H](CCC(=O)O)NC(=O)CNC1=O [compound 9] (H-G[S5]GKF[S5]HYKKKFGKA[S5]VGE[S5]AKK-NH2; staple 2-6, 16-20)	>64	> 200	8	16	>64	4	> 200
CC(C)[C@@H]1NC(=O)[C@@](C)(NC(=O)[C@H](C)NC(=O)[C@H](CCCCN)NC(=O)CNC(=O)[C@H](Cc2ccccc2)NC(=O)[C@H](CCCCN)NC(=O)[C@H](CCCCN)NC(=O)[C@H](CCCCN)NC(=O)[C@H](CO)NC(=O)[C@H](Cc2c[nH]c3ccccc23)NC(=O)[C@]2(C)CCCC=CCCC[C@](C)(NC(=O)CN)C(=O)NCC(=O)N[C@@H](CCCCN)C(=O)N[C@@H](Cc3ccccc3)C(=O)N2)CCCC=CCCC[C@@](C)(C(=O)N[C@@H](C)C(=O)N[C@@H](CCCCN)C(=O)N[C@@H](CCCCN)C(N)=O)NC(=O)[C@H](CCC(=O)O)NC(=O)CNC1=O [compound 60] (H-G[S5]GKF[S5]WSKKKFGKA[S5]VGE[S5]AKK-NH2; staple 2-6, 16-20)	32	56 (≈ 21.7 µM)	4	8	>64	4	108 (≈ 41.8 µM)
CC(C)[C@@H]1NC(=O)[C@@](C)(NC(=O)[C@H](C)NC(=O)[C@H](CCCCN)NC(=O)CNC(=O)[C@H](Cc2ccccc2)NC(=O)[C@H](CCCCN)NC(=O)[C@H](CCCCN)NC(=O)[C@H](CCCCN)NC(=O)[C@H](CO)NC(=O)[C@H](Cc2c[nH]cn2)NC(=O)[C@]2(C)CCCC=CCCC[C@](C)(NC(=O)CN)C(=O)NCC(=O)N[C@@H](CCCCN)C(=O)N[C@@H](Cc3c[nH]c4ccccc34)C(=O)N2)CCCC=CCCC[C@@](C)(C(=O)N[C@@H](C)C(=O)N[C@@H](CCCCN)C(=O)N[C@@H](CCCCN)C(N)=O)NC(=O)[C@H](CCC(=O)O)NC(=O)CNC1=O [compound 59] (H-G[S5]GKW[S5]HSKKKFGKA[S5]VGE[S5]AKK-NH2; staple 2-6, 16-20)	64	> 200	4	8	>64	4	> 200
CC(C)[C@@H]1NC(=O)[C@@](C)(NC(=O)[C@H](C)NC(=O)[C@H](CCCCN)NC(=O)CNC(=O)[C@H](Cc2ccccc2)NC(=O)[C@H](CCCCN)NC(=O)[C@H](CCCCN)NC(=O)[C@H](CCCCN)NC(=O)[C@H](CO)NC(=O)[C@H](Cc2c[nH]cn2)NC(=O)[C@]2(C)CCCC=CCCC[C@](C)(NC(=O)CN)C(=O)NCC(=O)N[C@@H](CCCCN)C(=O)N[C@@H](Cc3ccccc3)C(=O)N2)CCCC=CCCC[C@@](C)(C(=O)N[C@@H](C)C(=O)N[C@@H](CCCCN)C(=O)N[C@@H](CCCCN)C(N)=O)NC(=O)[C@H](CCC(=O)O)NC(=O)[C@H](Cc2c[nH]c3ccccc23)NC1=O (single isomer, unassigned) [compound 10]	4	150 (≈ 56.4 µM)	4	4	32	2	110 (≈ 41.3 µM)
CC(C)[C@@H]1NC(=O)[C@@](C)(NC(=O)[C@H](C)NC(=O)[C@H](CCCCN)NC(=O)CNC(=O)[C@H](Cc2ccccc2)NC(=O)[C@H](CCCCN)NC(=O)[C@H](CCCCN)NC(=O)[C@H](CCCCN)NC(=O)[C@H](CCCCN)NC(=O)[C@H](CCCCN)NC(=O)[C@]2(C)CCCC=CCCC[C@](C)(NC(=O)CN)C(=O)NCC(=O)N[C@@H](CCCCN)C(=O)N[C@@H](Cc3ccccc3)C(=O)N2)CCCC=CCCC[C@@](C)(C(=O)N[C@@H](C)C(=O)N[C@@H](CCCCN)C(=O)N[C@@H](CCCCN)C(=O)NCCOCCOCCOCCOCCOCCC(N)=O)NC(=O)[C@H](CCC(=O)O)NC(=O)CNC1=O [compound 75] (H-G[S5]GKF[S5]KKKKKFGKA[S5]VGE[S5]AKK[PEG5]-NH2; staple 2-6, 16-20)	8	357 (≈ 125 µM)	4	4	>64	2	> 200
CC(C)[C@@H]1NC(=O)[C@@](C)(NC(=O)[C@H](C)NC(=O)[C@H](CCCCN)NC(=O)[C@H](Cc2c[nH]c3ccccc23)NC(=O)[C@H](Cc2ccccc2)NC(=O)[C@H](CCCCN)NC(=O)[C@H](CCCCN)NC(=O)[C@H](CCCCN)NC(=O)[C@H](CO)NC(=O)[C@H](Cc2c[nH]cn2)NC(=O)[C@]2(C)CCCC=CCCC[C@](C)(NC(=O)CN)C(=O)NCC(=O)N[C@@H](CCCCN)C(=O)N[C@@H](Cc3ccccc3)C(=O)N2)CCCC=CCCC[C@@](C)(C(=O)N[C@@H](C)C(=O)N[C@@H](CCCCN)C(=O)N[C@@H](CCCCN)C(N)=O)NC(=O)[C@H](CCC(=O)O)NC(=O)CNC1=O [compound 69] (H-G[S5]GKF[S5]HSKKKFWKA[S5]VGE[S5]AKK-NH2; staple 2-6, 16-20)	8	23 (≈ 8.64 µM)	4	8	32	4	24 (≈ 9.02 µM)
